Experimental findings from US20240327382A1 (ALMAC DISCOVERY LIMITED, priority 2021, published 2024) are described below.

Where a name gives a salt, the structure may show the parent alone. A value given as a limit tells only on which side of the number the result lay.

This assay deals with T1, Full-length USP19 (Homo sapiens, UniProt O94966).
T1 construct: Full-length USP19 was purchased from Boston Biochem (E-576); purchased Boston Biochem E-576
T1 sequence (O94966 1-1318): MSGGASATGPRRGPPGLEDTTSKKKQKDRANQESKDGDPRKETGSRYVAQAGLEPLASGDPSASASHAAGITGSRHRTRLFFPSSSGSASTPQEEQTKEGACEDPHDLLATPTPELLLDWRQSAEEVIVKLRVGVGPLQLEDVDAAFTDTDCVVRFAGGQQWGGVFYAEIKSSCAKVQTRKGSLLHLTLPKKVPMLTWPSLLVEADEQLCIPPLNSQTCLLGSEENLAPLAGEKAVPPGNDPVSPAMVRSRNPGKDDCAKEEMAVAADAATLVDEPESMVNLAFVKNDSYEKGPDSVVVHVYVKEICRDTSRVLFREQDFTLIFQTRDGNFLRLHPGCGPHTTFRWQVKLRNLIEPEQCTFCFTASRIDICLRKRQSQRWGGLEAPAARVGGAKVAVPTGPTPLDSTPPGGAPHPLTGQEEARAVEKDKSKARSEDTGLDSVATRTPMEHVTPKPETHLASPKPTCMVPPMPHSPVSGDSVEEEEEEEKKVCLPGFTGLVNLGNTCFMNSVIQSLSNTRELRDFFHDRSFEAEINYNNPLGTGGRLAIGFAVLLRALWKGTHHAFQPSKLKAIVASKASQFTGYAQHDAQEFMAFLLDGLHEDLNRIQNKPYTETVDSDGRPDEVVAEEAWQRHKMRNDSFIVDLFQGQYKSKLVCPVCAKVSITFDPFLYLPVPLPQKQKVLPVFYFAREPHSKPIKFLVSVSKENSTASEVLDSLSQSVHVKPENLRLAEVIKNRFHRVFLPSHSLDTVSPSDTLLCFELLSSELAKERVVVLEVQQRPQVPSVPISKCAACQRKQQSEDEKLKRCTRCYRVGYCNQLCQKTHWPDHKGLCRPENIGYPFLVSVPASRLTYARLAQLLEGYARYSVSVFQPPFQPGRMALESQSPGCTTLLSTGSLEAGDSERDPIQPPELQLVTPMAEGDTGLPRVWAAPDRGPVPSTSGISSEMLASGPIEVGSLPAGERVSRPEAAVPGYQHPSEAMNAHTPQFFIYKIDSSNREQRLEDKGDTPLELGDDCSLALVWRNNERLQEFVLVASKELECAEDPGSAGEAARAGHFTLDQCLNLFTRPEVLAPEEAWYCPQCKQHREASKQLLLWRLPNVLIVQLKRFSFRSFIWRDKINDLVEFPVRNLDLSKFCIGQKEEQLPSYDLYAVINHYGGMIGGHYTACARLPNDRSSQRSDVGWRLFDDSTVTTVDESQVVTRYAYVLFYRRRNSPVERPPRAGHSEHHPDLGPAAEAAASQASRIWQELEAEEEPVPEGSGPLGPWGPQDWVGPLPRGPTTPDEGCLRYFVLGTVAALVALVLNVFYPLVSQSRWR
The assay can be described thus: USP19 fluorescence polarisation (FP) assay, Ubiquitin-Lys-TAMRA substrate. The assay is classed as biochemical. The conditions noted are these: average of at least two duplicate experiments. How it is done:
USP19 activity was determined in a fluorescence polarisation (FP) homogeneous assay using the isopeptide Ubiquitin-Lys-TAMRA substrate (either AUB-101, Almac Sciences Scotland Limited, or U-558, Boston Biochem, both of which gave identical results). Full-length USP19 was purchased from Boston Biochem (E-576). Unless otherwise stated, all other reagents were purchased from Sigma. Enzymatic reactions were conducted in black flat bottom polystyrene 384-well plates (Nunc) and 30 μL total volume. USP19 (2.5 nM, 10 μL) was incubated in assay buffer (50 mM HEPES (pH 7.4), 150 mM NaCl, 5 mM DTT, 0.05% BSA (w/v), 0.05% CHAPS) in the presence or absence of inhibitor (10 μL). Inhibitors were stored as 10 mM DMSO stocks in an inert environment (low humidity, dark, low oxygen, rt) using the StoragePod® system (Roylan Developments) and serial dilutions were prepared in buffer just prior to the assay (from 200 μM to 2 μM, 8-18 data point curve). Following incubation at RT for 30 min, the enzymatic reactions were initiated by dispensing the Ub substrate (500 nM, 10 μL). FP was measured every 15 min over a period of 90 min (within the linear range of the assay) using a Synergy 4 plate reader (BioTek) exciting at 530 nm and measuring the amount of parallel and perpendicular light at 575 nm. The FP signal was subsequently normalised to the no compound control. Data were plotted and fitted, and the concentrations resulting in 50% inhibition (IC50) were calculated using the non-linear regression curve fitting model using GraphPad (Prism). IC50 values for the inhibitors of the invention are compiled in Tables 1 and 3 and represent the average of at least two duplicate experiments.
Usually IC50 stands for the point on the concentration scale where inhibition reaches its midpoint. As to `N[C@@H]1CCN(C(=O)N2CC[C@@H](Cn3ccc(-c4ccccc4)cc3=O)C3(CCCC3)C2)[C@H](c2ccccc2)C1` [Example 23, 1-(((R)-7-((2S,4R)-4-Amino-2-phenylpiperidine-1-carbonyl)-7-azaspiro[4.5]decan-10-yl)methyl)-4-phenylpyridin-2(1H)-one], the IC50 is less than 10 nM.
For `COc1ccccc1-c1cc(=O)n(C[C@]2(OC)CCN(C(=O)N3CC[C@@H](NC(C)C)C[C@H]3c3cc(F)ccc3F)CC23CCCC3)cn1` [Example 190, 3-(((S)-7-((2S,4R)-2-(2,5-Difluorophenyl)-4-(isopropylamino)piperidine-1-carbonyl)-10-methoxy-7-azaspiro[4.5]decan-10-yl)methyl)-6-(2-methoxyphenyl)pyrimidin-4(3H)-one], the IC50 is less than 10 nM.
Regarding `O=C(NCc1ccccc1)N1CCC(Cn2cnc(-c3ccccc3)cc2=O)C2(CCCC2)C1` (stereo not drawn) [Example 10, N-Benzyl-10-((6-oxo-4-phenylpyrimidin-1(6H)-yl)methyl)-7-azaspiro[4.5]decane-7-carboxamide], the IC50 was in the range of 100 to 1000 nM.
Turning to `C[C@H]1CN(C(=O)N2CC[C@@H](Cn3cnc(-c4ccccc4)cc3=O)C3(CCCC3)C2)[C@H](c2cc(F)ccc2F)CO1` [Example 201, 3-(((R)-7-((2,5R)-5-(2,5-Difluorophenyl)-2-methylmorpholine-4-carbonyl)-7-azaspiro[4.5]decan-10-yl)methyl)-6-phenylpyrimidin-4(3H)-one], the IC50 was less than 10 nM.
For `COc1ccccc1-c1ccn(C[C@@H]2CCN(C(=O)N3CC[C@@H](N)C[C@H]3c3ccccc3)CC23CCCC3)c(=O)c1` [Example 59, 1-(((R)-7-((2S,4R)-4-Amino-2-phenylpiperidine-1-carbonyl)-7-azaspiro[4.5]decan-10-yl)methyl)-4-(2-methoxyphenyl)pyridin-2(1H)-one], the IC50 was less than 10 nM.
Turning to `Cc1ccccc1-c1cc(=O)n(C[C@@H]2CCN(C(=O)N3CC[C@@H](N)C[C@H]3c3cc(F)ccc3F)CC23CCCC3)cn1` [Example 82, 3-(((R)-7-((2S,4R)-4-Amino-2-(2,5-difluorophenyl)piperidine-1-carbonyl)-7-azaspiro[4.5]decan-10-yl)methyl)-6-(o-tolyl)pyrimidin-4(3H)-one], the IC50 is less than 10 nM.
As to `N[C@@H]1CCN(C(=O)N2CCC(CN3CCOCC3=O)C3(CCCC3)C2)[C@H](c2ccccc2)C1` (stereo partly drawn) [Example 41, 4-((7-((2S,4R)-4-Amino-2-phenylpiperidine-1-carbonyl)-7-azaspiro[4.5]decan-10-yl)methyl) morpholin-3-one], the IC50 is 10 to 100 nM.
Regarding `CN[C@@H]1CCN(C(=O)N2CC[C@@H](Cn3cccnc3=O)C3(CCCC3)C2)[C@H](c2ccc(F)cc2F)C1` [Example 128, 1-(((R)-7-((2S,4R)-2-(2,4-Difluorophenyl)-4-(methylamino)piperidine-1-carbonyl)-7-azaspiro[4.5]decan-10-yl)methyl)pyrimidin-2(1H)-one], the IC50 lay within 100 to 1000 nM.
As to `N[C@@H]1CCN(C(=O)N2CC[C@@H](Cn3cnc(-c4ccccc4)cc3=O)C3(CCCC3)C2)[C@H](c2cc(F)cc(F)c2)C1` [Example 107, 3-[[(10R)-7-[(2S,4R)-4-amino-2-(3,5-difluorophenyl)piperidine-1-carbonyl]-7-azaspiro[4.5]decan-10-yl]methyl]-6-phenyl-pyrimidin-4-one], the half-inhibitory concentration (IC50) was less than 10 nM.
Consider `O=C(N1CC[C@@H](Cn2ccc(-c3ccccc3)cc2=O)C2(CCCC2)C1)N1CC[C@@H](O)C[C@H]1c1ccccc1` [Example 44, 1-(((R)-7-((2S,4R)-4-Hydroxy-2-phenylpiperidine-1-carbonyl)-7-azaspiro[4.5]decan-10-yl)methyl)-4-phenylpyridin-2(1H)-one], for which the IC50 fell in the range of 10 to 100 nM.
Take `O=C(N1CC[C@@H](Cn2cnc(-c3ccccc3)cc2=O)C2(CCCC2)C1)N1CC[C@@H](NCc2ncccn2)C[C@H]1c1cc(F)ccc1F` [Example 169, 3-(((R)-7-((2S,4R)-2-(2,5-Difluorophenyl)-4-((pyrimidin-2-ylmethyl)amino)piperidine-1-carbonyl)-7-azaspiro[4.5]decan-10-yl)methyl)-6-phenylpyrimidin-4(3H)-one]: the IC50 was less than 10 nM.
As for `O=C(N1CC[C@@H](Cn2cnc(-c3ccccc3)cc2=O)C2(CCCC2)C1)N1CC[C@@H](NCc2ccc(F)cn2)C[C@H]1c1ccccc1` [Example 148, 3-(((R)-7-((2S,4R)-4-(((5-Fluoropyridin-2-yl)methyl)amino)-2-phenylpiperidine-1-carbonyl)-7-azaspiro[4.5]decan-10-yl)methyl)-6-phenylpyrimidin-4(3H)-one], the IC50 is less than 10 nM.
Regarding `O=C(O)[C@@H]1CCN(C(=O)N2CC[C@@H](Cn3cnc(-c4ccccc4)cc3=O)C3(CCCC3)C2)[C@H](c2ccccc2)C1` [Example 175, (2S,4R)-1-((R)-10-((6-oxo-4-phenylpyrimidin-1(6H)-yl)methyl)-7-azaspiro[4.5]decane-7-carbonyl)-2-phenylpiperidine-4-carboxylic acid], the IC50 was 100 to 1000 nM.
With `CN(C)[C@@H]1CCN(C(=O)N2CC[C@@H](Cn3cnc4ccc(F)cc4c3=O)C3(CCCC3)C2)[C@H](c2cc(F)cc(F)c2)C1` [Example 184, 3-(((R)-7-((2S,4R)-2-(3,5-Difluorophenyl)-4-(dimethylamino)piperidine-1-carbonyl)-7-azaspiro[4.5]decan-10-yl)methyl)-6-fluoroquinazolin-4(3H)-one hydrochloride], the IC50 was in the range of 100 to 1000 nM.
Regarding `Cc1cccnc1CN[C@@H]1CCN(C(=O)N2CC[C@@H](Cn3cnc(-c4ccccc4)cc3=O)C3(CCCC3)C2)[C@H](c2ccccc2)C1` [Example 193, 3-(((R)-7-((2S,4R)-4-(((3-Methylpyridin-2-yl)methyl)amino)-2-phenylpiperidine-1-carbonyl)-7-azaspiro[4.5]decan-10-yl)methyl)-6-phenylpyrimidin-4(3H)-one], the IC50 was 10 to 100 nM.
`O=C(N1CC[C@@H](Cn2cnc(-c3ccccc3)cc2=O)C2(CCCC2)C1)N1CC[C@@H](NC2CC(F)(F)C2)C[C@H]1c1ccccc1` [Example 135, 3-(((R)-7-((2S,4R)-4-((3,3-Difluorocyclobutyl)amino)-2-phenylpiperidine-1-carbonyl)-7-azaspiro[4.5]decan-10-yl)methyl)-6-phenylpyrimidin-4(3H)-one]: the IC50 was less than 10 nM.
Then `C[C@H](CC(F)(F)F)C(=O)N1CCC(N)(Cn2cnc(-c3ccccc3)cc2=O)C2(CCCC2)C1` (stereo partly drawn) [Example 49, 3-((10-Amino-7-((R)-4,4,4-trifluoro-2-methylbutanoyl)-7-azaspiro[4.5]decan-10-yl)methyl)-6-phenylpyrimidin-4(3H)-one], with 100 to 1000 nM; and `O=C(N1CCC(Cn2cnc(-c3ccccc3)cc2=O)C2(CCCC2)C1)N1CCNC[C@H]1c1cc(F)cc(F)c1` (stereo partly drawn) [Example 11, 3-((7-((R)-2-(3,5-Difluorophenyl)piperazine-1-carbonyl)-7-azaspiro[4.5]decan-10-yl)methyl)-6-phenylpyrimidin-4(3H)-one], with less than 10 nM.
